# In patent US10112899B2 (ViiV HEALTHCARE UK LIMITED, priority 2014, dated 2018):
# Tested on: HIV in the HTLV-1 transformed cell line MT-4
# Assay: organism not typed
# Type: cell-based
# Conditions: MT4, 96 h, MT-4 cells; luciferase/cell titer glo readout after 96 hours; 10 point dose response
row,SMILES,IC50
1,"Cc1c(-c2c(C)c3c(c(C)c2[C@H](OC(C)(C)C)C(=O)O)CN(S(=O)(=O)c2cccc(F)c2)C3)cc(F)c2c1CCCO2 (atropisomer, axis not shown; (M)) [Example 218, (S)-2-(tert-butoxy)-2-((M)-6-(8-fluoro-5-methylchroman-6-yl)-2-((3-fluorophenyl)sulfonyl)-4,7-dimethylisoindolin-5-yl)acetic acid]",11 nM
2,"Cc1c(-c2c(C)c3c(c(C)c2[C@H](OC(C)(C)C)C(=O)O)CN(C(=O)c2cc(F)ccc2F)C3)cc(F)c2c1CCCO2 (atropisomer, axis not shown; (M)) [Example 285, (S)-2-(tert-butoxy)-2-((M)-2-(2,5-difluorobenzoyl)-6-(8-fluoro-5-methylchroman-6-yl)-4,7-dimethylisoindolin-5-yl)acetic acid]",2 nM
3,"COc1ccc(C(=O)N2Cc3c(C)c(-c4cc(F)c5c(c4C)CCCO5)c([C@H](OC(C)(C)C)C(=O)O)c(C)c3C2)c(C)c1 (atropisomer, axis not shown; (M)) [Example 286, (S)-2-(tert-butoxy)-2-((M)-6-(8-fluoro-5-methylchroman-6-yl)-2-(4-methoxy-2-methylbenzoyl)-4,7-dimethylisoindolin-5-yl)acetic acid]",11 nM
4,"Cc1c(-c2c(C)c3c(c(C)c2[C@H](OC(C)(C)C)C(=O)O)CN(C(=O)c2cccc(F)c2)C3)cc(F)c2c1NCCO2 (atropisomer, axis not shown; (M)) [Example 301, (S)-2-(tert-butoxy)-2-(6-((M)-8-fluoro-5-methyl-3,4-dihydro-2H-benzo[b][1,4]oxazin-6-yl)-2-(3-fluorobenzoyl)-4,7-dimethylisoindolin-5-yl)acetic acid]",5 nM
5,"Cc1c(-c2c(C)c3c(c(C)c2[C@H](OC(C)(C)C)C(=O)O)CN(C(=O)N2CCC(F)(F)C2)C3)ccc2c1NCCO2 (atropisomer, axis not shown; (M)) [Example 312, (S)-2-(tert-butoxy)-2-((M)-2-(3,3-difluoropyrrolidine-1-carbonyl)-4,7-dimethyl-6-(5-methyl-3,4-dihydro-2H-benzo[b][1,4]oxazin-6-yl)isoindolin-5-yl)acetic acid]",6 nM
6,"Cc1ccc(-c2c(C)c3c(c(C)c2C(OC(C)(C)C)C(=O)O)CN(Cc2ccc(F)cc2)C3)cc1 (centres unmarked) [Example 1, 2-(tert-Butoxy)-2-(2-(4-fluorobenzyl)-4,7-dimethyl-6-(p-tolyl)isoindolin-5-yl)acetic acid]",35 nM
7,"Cc1ccc(-c2c(C)c3c(c(C)c2[C@H](OC(C)(C)C)C(=O)O)CN(Cc2ccc(F)cc2)C3)cc1 [Example 2, (S)-2-(tert-Butoxy)-2-(2-(4-fluorobenzyl)-4,7-dimethyl-6-(p-tolyl)isoindolin-5-yl)acetic acid]",36 nM
8,"Cc1ccc(-c2c(C)c3c(c(C)c2[C@H](OC(C)(C)C)C(=O)O)CN(Cc2cccc(F)c2F)C3)cc1 [Example 3, (S)-2-(tert-butoxy)-2-(2-(2,3-difluorobenzyl)-4,7-dimethyl-6-(p-tolyl)isoindolin-5-yl)acetic acid]",40 nM
9,"Cc1ccc(-c2c(C)c3c(c(C)c2[C@H](OC(C)(C)C)C(=O)O)CN(C(=O)NC2CCCCC2)C3)cc1 [Example 4, (S)-2-(tert-Butoxy)-2-(2-(cyclohexylcarbamoyl)-4,7-dimethyl-6-(p-tolyl)isoindolin-5-yl)acetic acid]",33 nM
10,"Cc1ccc(-c2c(C)c3c(c(C)c2[C@H](OC(C)(C)C)C(=O)O)CN(C(=O)N2CCCCC2)C3)cc1 [Example 7, (S)-2-(tert-butoxy)-2-(4,7-dimethyl-2-(piperidine-1-carbonyl)-6-(p-tolyl)isoindolin-5-yl)acetic acid]",4 nM
11,"Cc1ccc(-c2c(C)c3c(c(C)c2C(OC(C)(C)C)C(=O)O)CN(Cc2ccccc2)C3)cc1 (centres unmarked) [Example 9, 2-(2-Benzyl-4,7-dimethyl-6-(p-tolyl)isoindolin-5-yl)-2-(tert-butoxy)acetic acid]",98 nM
12,"Cc1ccc(-c2c(C)c3c(c(C)c2C(OC(C)(C)C)C(=O)O)CN(CC2CCCCC2)C3)cc1 (centres unmarked) [Example 10, 2-(tert-butoxy)-2-(2-(cyclohexylmethyl)-4,7-dimethyl-6-(p-tolyl)isoindolin-5-yl)acetic acid]",71 nM
13,"Cc1ccc(-c2c(C)c3c(c(C)c2[C@H](OC(C)(C)C)C(=O)O)CN(Cc2ccncc2)C3)cc1 [Example 11, (S)-2-(tert-butoxy)-2-(4,7-dimethyl-2-(pyridin-4-ylmethyl)-6-(p-tolyl)isoindolin-5-yl)acetic acid]",174 nM
14,"Cc1ccc(-c2c(C)c3c(c(C)c2[C@H](OC(C)(C)C)C(=O)O)CN(CC2CCOCC2)C3)cc1 [Example 12, (S)-2-(tert-butoxy)-2-(4,7-dimethyl-2-((tetrahydro-2H-pyran-4-yl)methyl)-6-(p-tolyl)isoindolin-5-yl)acetic acid]",820 nM
15,"Cc1ccc(-c2c(C)c3c(c(C)c2[C@H](OC(C)(C)C)C(=O)O)CN(Cc2cccc4ccccc24)C3)cc1 [Example 13, (S)-2-(tert-Butoxy)-2-(4,7-dimethyl-2-(naphthalen-1-ylmethyl)-6-(p-tolyl)isoindolin-5-yl)acetic acid]",44 nM
16,"Cc1ccc(-c2c(C)c3c(c(C)c2[C@H](OC(C)(C)C)C(=O)O)CN(C2CCC(C)(C)CC2)C3)cc1 [Example 14, (S)-2-(tert-Butoxy)-2-(2-(4,4-dimethylcyclohexyl)-4,7-dimethyl-6-(p-tolyl)isoindolin-5-yl)acetic acid]",118 nM

row,SMILES,IC50
1,"Cc1ccc(-c2c(C)c3c(c(C)c2C(OC(C)(C)C)C(=O)O)CN(S(C)(=O)=O)C3)cc1 (centres unmarked) [Example 15, 2-(tert-Butoxy)-2-(4,7-dimethyl-2-(methylsulfonyl)-6-(p-tolyl)isoindolin-5-yl)acetic acid]",2130 nM
2,"Cc1ccc(-c2c(C)c3c(c(C)c2C(OC(C)(C)C)C(=O)O)CN(S(=O)(=O)c2cccc4ccccc24)C3)cc1 (centres unmarked) [Example 16, 2-(tert-Butoxy)-2-(4,7-dimethyl-2-(naphthalen-1-ylsulfonyl)-6-(p-tolyl)isoindolin-5-yl)acetic acid]",62 nM
3,"Cc1ccc(-c2c(C)c3c(c(C)c2C(OC(C)(C)C)C(=O)O)CN(C(=O)OCc2ccccc2)C3)cc1 (centres unmarked) [Example 17, 2-(2-((Benzyloxy)carbonyl)-4,7-dimethyl-6-(p-tolyl)isoindolin-5-yl)-2-(tert-butoxy)acetic acid]",1280 nM
4,"Cc1ccc(-c2c(C)c3c(c(C)c2[C@H](OC(C)(C)C)C(=O)O)CN(Cc2ccc(Cl)cc2)C3)cc1 [Example 18, (S)-2-(tert-butoxy)-2-(2-(4-chlorobenzyl)-4,7-dimethyl-6-(p-tolyl)isoindolin-5-yl)acetic acid]",75 nM
5,"COc1ccc(CN2Cc3c(C)c(-c4ccc(C)cc4)c([C@H](OC(C)(C)C)C(=O)O)c(C)c3C2)cc1 [Example 19, (S)-2-(tert-butoxy)-2-(2-(4-methoxybenzyl)-4,7-dimethyl-6-(p-tolyl)isoindolin-5-yl)acetic acid]",340 nM
6,"Cc1ccc(CN2Cc3c(C)c(-c4ccc(C)cc4)c([C@H](OC(C)(C)C)C(=O)O)c(C)c3C2)cc1 [Example 20, (S)-2-(tert-butoxy)-2-(4,7-dimethyl-2-(4-methylbenzyl)-6-(p-tolyl)isoindolin-5-yl)acetic acid]",115 nM
7,"Cc1ccc(-c2c(C)c3c(c(C)c2[C@H](OC(C)(C)C)C(=O)O)CN(Cc2ccccc2F)C3)cc1 [Example 21, (S)-2-(tert-butoxy)-2-(2-(2-fluorobenzyl)-4,7-dimethyl-6-(p-tolyl)isoindolin-5-yl)acetic acid]",40 nM
8,"Cc1ccc(-c2c(C)c3c(c(C)c2[C@H](OC(C)(C)C)C(=O)O)CN(Cc2cccc(F)c2)C3)cc1 [Example 22, (S)-2-(tert-butoxy)-2-(2-(3-fluorobenzyl)-4,7-dimethyl-6-(p-tolyl)isoindolin-5-yl)acetic acid]",20 nM
9,"Cc1ccc(-c2c(C)c3c(c(C)c2[C@H](OC(C)(C)C)C(=O)O)CN(Cc2nc(C)c[nH]2)C3)cc1 [Example 23, (S)-2-(tert-butoxy)-2-(4,7-dimethyl-2-((4-methyl-1H-imidazol-2-yl)methyl)-6-(p-tolyl)isoindolin-5-yl)acetic acid]",203 nM
10,"COc1cccc(CN2Cc3c(C)c(-c4ccc(C)cc4)c([C@H](OC(C)(C)C)C(=O)O)c(C)c3C2)c1 [Example 24, (S)-2-(tert-butoxy)-2-(2-(3-methoxybenzyl)-4,7-dimethyl-6-(p-tolyl)isoindolin-5-yl)acetic acid]",12 nM
11,"Cc1ccc(-c2c(C)c3c(c(C)c2[C@H](OC(C)(C)C)C(=O)O)CN(CC(C)C)C3)cc1 [Example 25, (S)-2-(tert-butoxy)-2-(2-isobutyl-4,7-dimethyl-6-(p-tolyl)isoindolin-5-yl)acetic acid]",946 nM
12,"Cc1ccc(-c2c(C)c3c(c(C)c2[C@H](OC(C)(C)C)C(=O)O)CN(Cc2ccc(Cl)c(Cl)c2)C3)cc1 [Example 26, (S)-2-(tert-butoxy)-2-(2-(3,4-dichlorobenzyl)-4,7-dimethyl-6-(p-tolyl)isoindolin-5-yl)acetic acid]",54 nM
13,"Cc1ccc(-c2c(C)c3c(c(C)c2[C@H](OC(C)(C)C)C(=O)O)CN(Cc2ccc(C(F)(F)F)cc2)C3)cc1 [Example 27, (S)-2-(tert-butoxy)-2-(4,7-dimethyl-6-(p-tolyl)-2-(4-(trifluoromethyl)benzyl)isoindolin-5-yl)acetic acid]",932 nM
14,"Cc1ccc(-c2c(C)c3c(c(C)c2[C@H](OC(C)(C)C)C(=O)O)CN(Cc2cccc(C(F)(F)F)c2)C3)cc1 [Example 28, (S)-2-(tert-butoxy)-2-(4,7-dimethyl-6-(p-tolyl)-2-(3-(trifluoromethyl)benzyl)isoindolin-5-yl)acetic acid]",94 nM
15,"Cc1ccc(-c2c(C)c3c(c(C)c2[C@H](OC(C)(C)C)C(=O)O)CN(Cc2cccc(-c4ccccc4)c2)C3)cc1 [Example 29, (S)-2-(2-([1,1′-biphenyl]-3-ylmethyl)-4,7-dimethyl-6-(p-tolyl)isoindolin-5-yl)-2-(tert-butoxy)acetic acid]",184 nM

# Same assay, conditions: MT-4 cells; luciferase/cell titer glo readout after 96 hours; 10 point dose response
row,SMILES,IC50
1,"Cc1ccc(-c2c(C)c3c(c(C)c2C(OC(C)(C)C)C(=O)O)CN(S(=O)(=O)c2cccc4ccccc24)C3)cc1 (centres unmarked) [Example 5, 2-(tert-Butoxy)-2-(4,7-dimethyl-2-(naphthalen-1-ylsulfonyl)-6-(p-tolyl)isoindolin-5-yl)acetic acid]",42 nM
